Data set [1] in a line: Total clearance of compound in rat after administration of 1 mg/kg (iv) and 5 mg/kg (po). Conditions: in vivo. The class given is ADME, organism-based.
The nature of data set [2]: Maximum plasma concentration of compound in rat after peroral administration of 5 mg/kg. The class given is ADME, organism-based. On the set-up: dose 5 mg/kg, route oral. Conditions: po.
Data set [3] can be described thus: Steady state volume of distribution in rat after administration of 1 mg/kg (iv) and 5 mg/kg (po). The settings on record: in vivo, read-out: Vss. The class given is ADME, organism-based.
The nature of another data set: in vivo. The settings on record: rat, po, 5 mg/kg.

The source of these data is ChEMBL document CHEMBL1141171, “Selective estrogen receptor modulators with conformationally restricted side chains. Synthesis and structure-activity relationship of ERalpha-selective tetrahydroisoquinoline ligands” (J Med Chem, 2005).

As a reminder, the Cmax is the maximum level reached in the sampled fluid or tissue. As to `O=C(c1ccc(OCCN2CCCCC2)cc1)c1c(-c2ccc(O)cc2)sc2cc(O)ccc12` [RALOXIFENE], in data set [1], the clearance turned out to be 158 mL/min/kg. The compound also returned a Cmax in data set [2] of 7.5 nM. Further, the Vd in data set [3] is 17.6 L/kg.
What is called bioavailability is dose-corrected exposure relative to a reference, in per cent. `CC(C)N1CCN(c2ccc(C3c4ccc(O)cc4CCN3c3cccc(O)c3)cc2)CC1` (stereo unspecified) gave a bioavailability in “in vivo” of 44%. Also, the clearance in data set [1] came out at 17.9 mL/min/kg. Further, the Cmax in data set [2] stood at 57.2 nM. The Vd in data set [3] came out at 5 L/kg.
As to `Oc1ccc2c(c1)CC[C@H](c1ccccc1)[C@@H]2c1ccc(OCCN2CCCC2)cc1` [LASOFOXIFENE], the clearance in data set [1] turned out to be 55.7 mL/min/kg. In addition, in data set [2], the Cmax turned out to be 15.5 nM. In addition, the Vd in data set [3] is 14.7 L/kg.
`Oc1ccc2c(c1)CCN(c1ccccc1)C2c1ccc(OCCN2CCCCC2)cc1` (stereo unspecified) yielded a clearance in data set [1] of 51.9 mL/min/kg. In data set [2], this compound showed a Cmax of 31 nM. Besides, the Vd in data set [3] amounted to 13.8 L/kg.
`Oc1ccc2c(c1)CCN(c1ccccc1)C2c1ccc(N2CCN3CCCCC3C2)cc1` (stereo unspecified) had a bioavailability in the data set “in vivo” of 49%. Also, the clearance in data set [1] came out at 28.4 mL/min/kg. In data set [2], this compound came in with a Cmax of 29.7 nM. In data set [3], the Vd was found to be 9.2 L/kg.
Turning to `CN1CCC(c2ccc(C3c4ccc(O)cc4CCN3c3ccc(F)cc3)cc2)CC1` (stereo unspecified), in the data set “in vivo”, the bioavailability turned out to be 64%. This compound had a clearance in data set [1] of 52.4 mL/min/kg. In data set [2], this compound returned a Cmax of 26.5 nM. For the same compound, in data set [3], the Vd stood at 15.8 L/kg.
